Source: patent US20190030009A1, “COMPOUNDS AND COMPOSITIONS FOR THE TREATMENT OF CRYPTOSPORIDIOSIS” (Novartis AG, priority 2016, published 2019)
pEC50: −log10 of the molar value.

Key:
[1] = test system: Cryptosporidium parvum; test: Cytopathic effect (CPE) based assay, C. parvum infected HCT-8 cells; conditions: HCT-8 host cell viability (CellTiter-Glo), 48 hours treatment, read-out: Cp CPE EC50
Protocol: Human ileocecal colorectal adenocarcinoma cells (HCT-8 [HRT-18] ATCC, CCL-34) were maintained in T-175 flasks (Corning, 431080) in complete growth medium (RPMI-1640 medium (Gibco, 11875) supplemented with 10% heat-inactivated horse serum (Gibco, 26050), 1×MEM non-essential amino acids (Gibco, 11140), 10 mM HEPES (Gibco, 15630), 100 units/mL penicillin, and 100 units/mL streptomycin) at 37° C. and 5% CO2 in a humidified incubator. Cultures were passaged twice weekly using 10 mL of 1×Phosphate-Buffered Saline (PBS) without Ca^2+ and Mg^2+ (Gibco, 20012) for washing and 3-5 mL per T-175 flask of TrypLE Express Enzyme (Gibco, 12604) for dissociation of adherent cells.
Cryptosporidium parvum oocysts purchased from the Sterling Laboratory, University of Arizona (Iowa isolate) were purified from infected calf feces using discontinuous sucrose and cesium chloride centrifugation gradients and stored in PBS solution containing 0.01% Tween 20, 100 units/mL penicillin and 100 units/mL gentamicin.
Excystation and infection protocols were developed following established methods with some modifications (Gut & Nelson, 1999, Upton et aL, 1995, Bessoff et aL, 2013). Briefly, oocysts were primed in 1 mL of 10 mM hydrochloric acid in 1× Hank's Balanced Salt Solution (HBSS) (Gibco, 14025) for 10 minutes with agitation at 1000 rpm, 37° C. on an Eppendorf thermomixer, then washed twice with 1 mL of room temperature non-acidic 1× HBSS by centrifugation at 13,000 rpm for 3 minutes at 25° C. Primed oocysts were further excysted at a concentration of 1×10^6 oocysts/μL in parasite infection medium consisting of a pre-warmed and pre-gassed 1:1 formulation of Leibovitz's L-15 medium (Gibco, 11415) and UltraCULTURE medium (Lonza, 12-725F) supplemented with 2 mM sodium taurocholate (Sigma, 86339-1), 10% heat-inactivated horse serum, and 200 μM L-ascorbic acid (Sigma, 95210) at 25° C. for 10 minutes. HCT-8 monolayer cells were infected with excysted cryptosporidium at a specified multiplicity of infection (MOI). All dilutions for subsequent assays were performed in parasite infection medium without sodium taurocholate. Pre-excysted oocysts were enumerated microscopically using a C-Chip disposable hemocytometer (NanoEnTek, DHC-N01).
Compound powders were dissolved in neat DMSO (Fisher, D4121) to 10 mM and stored at 4° C. prior to dilution into source plates. Dilutions were carried out using a Microlab STAR liquid handler (Hamilton) to obtain compound source plates containing the ten-point or eight-point three fold dilutions starting from 10 mM in duplicates. Source plates were stored at 4° C. prior to spotting into assay plates. Before administration, all compound source plates were equilibrated to room temperature. A specified volume of compounds from source plate were spotted to assay plate using an Echo Acoustic liquid handler (LABCYTE, 550) so that the final DMSO concentration was less than 0.5%. Each assay plate a specified number of DMSO-treated negative control wells and a well-studied potent active compound at 100 nM as positive control. As a quality control, all positive and negative-control wells were used to calculate a Z′-value and signal to noise ratio (S:N) for each plate.
Cryptosporidium spp are obligate-intracellular parasites that infect intestinal epithelial cells and the host cell is killed upon parasite egress. […] The loss of epithelial cells is due to both rapid parasite invasion/multiplication/egress and also pro-inflammatory immune response (Adams et al., 1994, Griffiths et al., 1994). We have observed a consistent cytopathic effect (CPE) in HCT-8 cells with C. spp infection the loss of viability of the host cells using CellTiter-Glo reagent.
Confluent HCT-8 cells in T-175 flasks were directly infected with excysted oocysts at an MOI (host to parasite) of 1:2 for C. parvum and 1:4 for C. hominis. The number of host-cells is determined using a NucleoCounter (Chemometec, NC-100) in a control flask. […]

[2] = Cytotoxicity against HepG2; type: cell-based; conditions: human, HepG2 cells (ATCC HB-8065), 5 days exposure
Protocol: Cytotoxicity against HepG2 (ATCC# HB-8065), a human liver cancer cell line, was determined as previously described earlier (Manjunatha et al., 2015). Briefly, cells were seeded at a density of 10^5 cells per well, incubated at 37° C. for 24 h and exposed to two-fold serially-diluted compounds for 5 days. Cell viability was monitored using the Cell Proliferation Kit II (Invitrogen). The cytotoxicity values of selected compounds are reported in the fifth column [HepG2 CC50 (μM)] of Table II.

Structure (SMILES) | pEC50 [1] | CC50 at 5 days [2] [µM]
CNC(=O)c1ccc(-c2cnn3ccc(N(C(=O)c4ccc(C#N)cn4)C4CC4)cc23)cc1 [Example 147] | < 4.70 | 32.7
CNC(=O)c1ccc(-c2cnn3ccc(C(=O)N(c4ccc(C(F)(F)F)cn4)C(C)C)cc23)cn1 [Example 152] | 6.34 | 14.9
CNC(=O)c1ccc(-c2cnn3ccc(C(=O)N(c4ccc(F)cn4)C(C)C)cc23)cc1 [Example 151] | 5.64 | 29.2
N#Cc1ccc(N(C(=O)c2ccn3ncc(-c4ccc(C(N)=O)cn4)c3c2)C2CC2)cc1 [Example 142] | 6.42 | 18.3
CCN(C(=O)c1ccn2ncc(-c3ccc(C(=O)NC)nc3)c2c1)c1ccc(F)cn1 [Example 159] | 5.27 | 9.81
CNC(=O)c1ccc(-c2cnn3ccc(C(=O)N(c4ccc(F)cn4)C4CC4)cc23)cc1 [Example 125] | 6.15 | 25.5
N#Cc1ccc(N(C(=O)c2ccn3ncc(-c4ccc(C(N)=O)cn4)c3c2)C2CC2)nc1 [Example 139] | 5.68 | 16.7
CN(C)CCNC(=O)c1ccc(-c2cnn3ccc(C(=O)N(C)c4ccc(C#N)cn4)cc23)cc1 [Example 115] | 5.52 | 2.7
CNC(=O)c1ccc(-c2cnn3ccc(C(=O)N(c4ccc(Cl)cc4)C4CC4)cc23)cn1 [Example 143] | 7.10 | 17.5
CNC(=O)c1ccc(-c2cnn3ccc(C(=O)N(C)c4ccc(OCCN)cn4)cc23)cc1 [Example 111] | < 4.70 | > 50
CN(C(=O)c1ccn2ncc(-c3ccc(C(=O)NCCO)cc3)c2c1)c1ccc(C#N)cn1 [Example 102] | 6.40 | 38.5
CN(C(=O)c1ccn2ncc(-c3cnc(Cl)c(N)c3)c2c1)c1ccc(C#N)cn1 [Example 98] | 5.66 | 10.2
CNCCNC(=O)c1ccc(-c2cnn3ccc(C(=O)N(C)c4ccc(C#N)cn4)cc23)cc1 [Example 114] | 5.04 | 5.52
N#Cc1ccc(N(C2CC2)S(=O)(=O)c2ccn3ncc(-c4ccc(C(N)=O)cc4)c3c2)nc1 [Example 165] | 6.22 | 6.37
CNC(=O)c1ccc(-c2cnn3ccc(C(=O)N(c4ccc(C(F)(F)F)cn4)C4CC4)cc23)cc1 [Example 132] | 7.05 | 17.3
CNC(=O)c1ccc(-c2cnn3ccc(C(=O)N(c4ccc(C#N)cn4)C4CCC4)cc23)cn1 [Example 144] | 5.75 | 7.69
CCN(C(=O)c1ccn2ncc(-c3ccc(S(=O)(=O)NC)cc3)c2c1)c1ccc(C#N)cn1 [Example 140] | 4.99 | 26.1
CN(C(=O)c1ccn2ncc(-c3ccc(C(N)=O)cc3)c2c1)c1ccc(F)cc1 [Example 20] | 6.98 | 5.42
CN(C)C(=O)c1cc(-c2cnn3ccc(C(=O)N(C)c4ccc(C#N)cn4)cc23)cnc1N [Example 87] | 6.38 | > 50
CCN(C(=O)c1ccn2ncc(-c3ccc(C(=O)NC)cc3)c2c1)c1ccc(F)cn1 [Example 95] | 6.20 | 13
CNC(=O)c1ccc(-c2cnn3ccc(C(=O)N(c4ccc(Cl)cc4)C4CC4)cc23)cc1 [Example 116] | 8.15 | 3.01

Structure (SMILES) | pEC50 [1] | CC50 at 5 days [2] [µM]
CNC(=O)c1ccc(-c2cnn3ccc(S(=O)(=O)N(C)c4ccc(C#N)cn4)cc23)cc1 [Example 163] | 6.71 | 8.48
CN(C(=O)c1ccn2ncc(-c3ccc(C(=O)NCCN)cc3)c2c1)c1ccc(C#N)cn1 [Example 104] | 5.44 | > 50
CN(C(=O)c1ccn2ncc(-c3ccc(N)nc3)c2c1)c1ccc(C#N)cc1 [Example 41] | 7.01 | 24.1
NC(=O)c1ccc(-c2cnn3ccc(C(=O)N(c4ccc(F)c(F)c4)C4CC4)cc23)cc1 [Example 135] | 6.55 | 31.1
Cc1ccc(N(C)C(C)c2ccn3ncc(-c4ccc(C(N)=O)cc4)c3c2)nc1 (stereo not shown) [Example 65] | 5.29 | 2.28
CNC(=O)c1ccc(-c2cnn3ccc(C(=O)N(CCO)c4ccc(C#N)cc4)cc23)cc1 [Example 110] | < 4.70 | 23.8
N#Cc1ccc(N(CCO)C(=O)c2ccn3ncc(-c4ccc(C(N)=O)cc4)c3c2)cc1 [Example 105] | < 4.70 | > 50
CN(C(=O)c1ccn2ncc(-c3ccnc(N)c3)c2c1)c1ccc(C#N)cn1 [Example 108] | 5.31 | 14.2
CNC(=O)c1ccc(-c2cnn3ccc(C(=O)N(c4ccc(C#N)cn4)C4CCC4)cc23)nc1 [Example 155] | 5.99 | > 50
N#Cc1ccc(N(C(=O)c2ccn3ncc(-c4ccc(C(N)=O)nc4)c3c2)C2CC2)cc1 [Example 138] | 6.31 | 8.1
NC(=O)c1ccc(-c2cnn3ccc(C(=O)N4CCOc5cc(F)ccc54)cc23)cc1 [Example 71] | 6.24 | 1.82
CNC(=O)c1ccc(-c2cnn3ccc(C(=O)N(c4ccc(C(N)=O)cn4)C4CC4)cc23)cc1 [Example 129] | < 4.70 | > 50
CN(C(=O)c1ccn2ncc(-c3ccc(C(N)=O)cc3)c2c1)c1ccc(Cl)cc1 [Example 100] | 7.68 | 13.3
CNC(=O)c1ccc(-c2cnn3ccc(C(=O)N(c4ccc(C#N)cc4)C4CC4)cc23)cn1 [Example 137] | 6.46 | 2.19
CNC(=O)c1ccc(-c2cnn3ccc(C(=O)N(C)c4ccc(OC)nc4)cc23)cc1 [Example 122] | < 4.70 | 15.8
CNC(=O)c1ccc(-c2cnn3ccc(C(=O)N(c4ccc(C#N)cn4)C4CC4)cc23)nc1 [Example 133] | 5.66 | 20.9
CNC(=O)c1ccc(-c2cnn3ccc(C(=O)N(c4ccc(C#N)cc4)C(C)C)cc23)cn1 [Example 146] | 6.48 | 32.1
CN(C(=O)c1ccn2ncc(-c3cnc(N)nc3)c2c1)c1ccc(C#N)cc1 [Example 83] | 6.31 | > 50
CNC(=O)c1ccc(-c2cnn3ccc(C(=O)N(c4ccc(C#N)cc4)C4CC4)cc23)cc1 [Example 118] | 7.59 | 5.9
CN(C(=O)c1ccn2ncc(-c3ccc(C(N)=O)cc3)c2c1)C1CCC(C#N)CC1 (stereo not shown) [Example 82] | < 4.70 | > 50
